Assay results: patent US9687438B2, “Method for enhancing collagen secretion and preventing cutaneous aging using chenopodium formosanum extract” (TCI Co., Ltd., priority 2014, dated 2017)

What was measured:
[1] = test system: porcine collagen; assay: Intermediate glycation product (α-dicarbonyl compounds) formation; type: biochemical; conditions: versus untreated glycated collagen control
Protocol: (§1) In order to evaluate the ability to prevent glycation of collagen of the Chenopodium formosanum extract, firstly, porcine collagen (60 mg/mL) and fructose (1.5 M) were respectively prepared in 0.2 M potassium phosphate buffer (pH 7.4, containing 0.06% sodium azide). For each reaction of glycation, 100 μL of porcine collagen, 100 μL of fructose solution, and 100 μL of deionized water were deposited in a 1.5 mL microfuge tube. After incubation, the reacted solutions were stored frozen at −20° C. For determination of collagen-fructose glycation, a glycation inhibitor of aminoguanidine (AG) (Sigma) was used. 100 μL of 3 mM AG solution (prepared in deionized water) was introduced in substitution of the deionized water in each of the reactions described above containing collagen and fructose. Meanwhile, different concentrations of the whole grain (un-dehulled) Chenopodium formosanum extract were also prepared and introduced to the reactions describe above. For determination of the intensity, 100 μL of each reacted solution was withdrawn to a well of a 96-well plate and subjected to intensity determination by a spectrofluorometer (FLx 800, BioTek, Winooski, Vt.) set at 360 nm of excitation and 460 nm of emission.
Along the glycation process, amadori product is transformed into intermediate-product such as α-dicarbonyl compounds. […]

[2] = test system: porcine collagen; assay: Early glycation product (fructosamine) formation; type: biochemical; conditions: versus untreated glycated collagen control
Protocol: as §1
Amadori product such as fructosamine is formed at the early stage of glycation. […]

For N=C(N)NN [aminoguanidine], the “reduction of relative α-dicarbonyl compounds formation” value [1] was “practically incapable of suppressing the formation of α-dicarbonyl compounds” and the “reduction of relative fructosamine formation” value [2] was “about 8%”.
